Tests used:
Test in all cases: Kinase inhibitor library screening, PrestoBlue cell viability, 1 or 10 μM, 72 h
[1] = system: A375-GP cells (Dabrafenib-resistant); details: A375 GP; for cell viability (kinase inhibitor library screening): in %
[2] = system: IGR37-GP cells (Dabrafenib-resistant); details: IGR37 GP; for Cell viability in kinase inhibitor library screening, IGR37 GP, 10μΜ / Cell viability in kinase inhibitor library screening, IGR37 GP, 1μΜ: 72 h; for Cell viability in kinase inhibitor library screening, IGR37 GP, 1μΜ / cell viability (kinase inhibitor library screening): in %
[3] = system: IGR37-XP cells (Vemurafenib-resistant); details: IGR37 XP
A375 cells (parental) = details: A375 Parental; for Cell viability in kinase inhibitor library screening, A375 Parental, 10μΜ / Cell viability in kinase inhibitor library screening, A375 Parental, 1μΜ: 72 h; for cell viability (kinase inhibitor library screening): in %
501Mel cells (parental) = details: 501Mel Parental, in %
Outline: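 Two concentrations of every kinase inhibitor were tested on each melanoma line and its resistant counterparts, and cell survival was quantified by PrestoBlue against untreated wells.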

[4] = system: 501Mel-GP cells (Dabrafenib-resistant); details: 501Mel GP, in %; for Cell viability in kinase inhibitor library screening, 501Mel GP, 1μΜ / Cell viability in kinase inhibitor library screening, 501Mel GP, 10μΜ: 72 h
[5] = system: A375-XP cells (Vemurafenib-resistant); details: A375 XP; for Cell viability in kinase inhibitor library screening, A375 XP, 1μΜ / Cell viability in kinase inhibitor library screening, A375 XP, 10μΜ: 72 h; for cell viability (kinase inhibitor library screening): in %
[6] = system: 501Mel-XP cells (Vemurafenib-resistant); details: 501Mel XP, in %; for Cell viability in kinase inhibitor library screening, 501Mel XP, 1μΜ / Cell viability in kinase inhibitor library screening, 501Mel XP, 10μΜ: 72 h
IGR37 cells (parental) = details: IGR37 Parental, in %

SMILES	Cell viability in kinase inhibitor library screening, A375 GP, 10μΜ ([1]; 10μΜ, 72 h)	Cell viability in kinase inhibitor library screening, IGR37 GP, 10μΜ ([2]; 10μΜ)	Cell viability in kinase inhibitor library screening, IGR37 GP, 1μΜ ([2]; 1μΜ)	Cell viability in kinase inhibitor library screening, IGR37 XP, 10μΜ ([3]; 10μΜ, 72 h)	Cell viability in kinase inhibitor library screening, A375 Parental, 10μΜ (A375 cells (parental); 10μΜ)	Cell viability in kinase inhibitor library screening, A375 Parental, 1μΜ (A375 cells (parental); 1μΜ)	Cell viability in kinase inhibitor library screening, 501Mel Parental, 10μΜ (501Mel cells (parental); 10μΜ, 72 h)	Cell viability in kinase inhibitor library screening, 501Mel GP, 1μΜ ([4]; 1μΜ)	Cell viability in kinase inhibitor library screening, 501Mel GP, 10μΜ ([4]; 10μΜ)	Cell viability in kinase inhibitor library screening, A375 XP, 1μΜ ([5]; 1μΜ)	Cell viability in kinase inhibitor library screening, A375 XP, 10μΜ ([5]; 10μΜ)	Cell viability in kinase inhibitor library screening, 501Mel XP, 1μΜ ([6]; 1μΜ)	Cell viability in kinase inhibitor library screening, 501Mel XP, 10μΜ ([6]; 10μΜ)	Cell viability in kinase inhibitor library screening, IGR37 Parental, 10μΜ (IGR37 cells (parental); 10μΜ, 72 h)	cell viability (kinase inhibitor library screening) ([1]; 1μΜ)	cell viability (kinase inhibitor library screening) ([1]; 10μΜ)	cell viability (kinase inhibitor library screening) ([2]; 1μΜ)	cell viability (kinase inhibitor library screening) ([2]; 10μΜ)	cell viability (kinase inhibitor library screening) ([3]; 10μΜ, in %)	cell viability (kinase inhibitor library screening) (A375 cells (parental); 1μΜ)	also measured
NC(=O)c1ccc(N(C(N)=O)c2c(F)cccc2F)nc1-c1ccc(F)cc1F [VX-702]	97.2	93.6%	98.3	76.8%	90.0	102.7	97.1	99.8	87.7	104.7	104.6	91.5	83.4	103.3							
COc1cc2/c(=N/c3ccc(Br)cc3F)nc[nH]c2cc1OCC1CCN(C)CC1 [Vandetanib (Zactima)]															98.8	19.2	93.4	31.3	3.2	98.6	cell viability (kinase inhibitor library screening) ([3]; 1μΜ, in %): 94.5; cell viability (kinase inhibitor library screening) (A375 cells (parental); 10μΜ): 48.0; cell viability (kinase inhibitor library screening) (501Mel cells (parental); 1μΜ): 98.8; cell viability (kinase inhibitor library screening) (501Mel cells (parental); 10μΜ): 0.4; cell viability (kinase inhibitor library screening) ([4]; 10μΜ): 0.0201; cell viability (kinase inhibitor library screening) ([5]; 1μΜ): 103.0; cell viability (kinase inhibitor library screening) ([5]; 10μΜ): 39.3; cell viability (kinase inhibitor library screening) ([6]; 1μΜ): 89.6; cell viability (kinase inhibitor library screening) ([6]; 10μΜ): -0.445; cell viability (kinase inhibitor library screening) (IGR37 cells (parental); 1μΜ): 96.5; cell viability (kinase inhibitor library screening) (IGR37 cells (parental); 10μΜ): 11.2
Cl.Cl.Clc1ccc(Nc2nnc(Cc3ccncc3)c3ccccc23)cc1 [Vatalanib dihydrochloride (PTK787)]															96.3	92.3	95.0	83.6	58.7	105.1	cell viability (kinase inhibitor library screening) (A375 cells (parental); 10μΜ): 92.8; cell viability (kinase inhibitor library screening) (501Mel cells (parental); 1μΜ): 98.6; cell viability (kinase inhibitor library screening) (501Mel cells (parental); 10μΜ): 93.0; cell viability (kinase inhibitor library screening) ([4]; 1μΜ): 106.0; cell viability (kinase inhibitor library screening) ([4]; 10μΜ): 81.7; cell viability (kinase inhibitor library screening) ([5]; 10μΜ): 99.5; cell viability (kinase inhibitor library screening) ([6]; 1μΜ): 94.6; cell viability (kinase inhibitor library screening) ([6]; 10μΜ): 73.0; cell viability (kinase inhibitor library screening) (IGR37 cells (parental); 1μΜ): 118.3; cell viability (kinase inhibitor library screening) (IGR37 cells (parental); 10μΜ): 92.4
CCCS(=O)(=O)Nc1ccc(F)c(C(=O)c2c[nH]c3ncc(-c4ccc(Cl)cc4)cc23)c1F [Vemurafenib (PLX4032)]	68.9	88.3%	94.0	67.9%	14.6	28.6	61.7	104.7	81.3	98.7	76.6	94.9	68.0	34.4							Cell viability in kinase inhibitor library screening, A375 GP, 1μΜ ([1]; 1μΜ, 72 h): 92.1; Cell viability in kinase inhibitor library screening, IGR37 XP, 1μΜ ([3]; 1μΜ, 72 h, in %): 97.0; Cell viability in kinase inhibitor library screening, 501Mel Parental, 1μΜ (501Mel cells (parental); 1μΜ, 72 h): 65.5; Cell viability in kinase inhibitor library screening, IGR37 Parental, 1μΜ (IGR37 cells (parental); 1μΜ, 72 h): 43.2

Source: PMC6364417, “Kinase inhibitor library screening identifies synergistic drug combinations effective in sensitive and resistant melanoma cells” (Journal of Experimental & Clinical Cancer Research : CR, 2019)
